Tests used:
adoptive EAE = adoptive EAE clinical score (Example 2); type: in vivo, mice; conditions: FIG. 2A; for EAE clinical score, dose dependence: high (8 mg/kg/day) and low (2 mg/kg/day) dose
Source text: Active EAE induction in Example 1 uses pertussis toxin to artificially make the BBB more permeable and permit more infiltration of activated Th1/Th17 immune cells into the CNS. […] Thus, an alternative EAE induction method was used. Adoptive EAE uses MOG primed and activated immune cells from donor immunized mice for subsequent transfer into recipient mice with no administration of pertussis toxin. Thus, the blood brain barrier interactions in adoptive EAE are more physiologic than in active EAE. […] This experiment was larger since 2 sets of mice (donors and recipients) were needed and 2 doses were used, making the adoptive EAE experiment 4 times larger than the active EAE experiment 1. […] Brain and spinal cord levels were undetectable 24 hours after dosing.

active EAE = active EAE clinical score (Example 1); type: in vivo, C57BL6 female mice; conditions: high dose (8 mg/kg DPN, 10.8 mg/kg Compound 1), every other day, day 12 to day 48; FIG. 1A
[1] = concentrations over time in plasma, spinal cord and brain, adoptive EAE setup (Example 4); type: in vivo, mice; conditions: for persistence in brain and spinal tissue: 12 hours
Protocol: The experimental setup and monitoring was the same as in Example 2. […] Both Compounds 1 and 2 persisted in brain and spinal tissue at 12 hours.

[2] = DPN concentration 24 hours after dosing in adoptive EAE mice (Example 2); type: in vivo
Protocol: This experiment was larger since 2 sets of mice (donors and recipients) were needed and 2 doses were used, making the adoptive EAE experiment 4 times larger than the active EAE experiment 1.
Brain and spinal cord levels were undetectable 24 hours after dosing.

[3] = tissue concentrations of DPN in healthy mice (Example 3); type: in vivo; conditions: for levels of DPN in plasma, brain and spinal cord, compared to dosing with DPN: molar equivalent doses
Protocol: Compound 1 levels were not measured. […] At 12 hours, only high dose Compound 1 was detectable in plasma.
This experiment was repeated and the data above was confirmed.
This experiment was repeated with fresher standards and faster freezing of tissues once obtained from the mouse sacrifice.

[4] = DPN concentration in plasma, spinal cord and brain of active EAE mice (Example 1); conditions: three hours after the end of disease; FIG. 1B-1D
multiple sclerosis = conditions: cited from earlier work
EAE = conditions: cited from earlier work
[5] = MS patients, phase 2 clinical trial

CC(=O)Oc1ccc(C[C@@H](C#N)c2ccc(OC(C)=O)cc2)cc1 [Compound 1]
efficacy on EAE clinical score compared to DPN (adoptive EAE; adoptive EAE): more efficacy
EAE clinical score, dose dependence (adoptive EAE): dose responses
effect on EAE disease progression (EAE clinical score) (active EAE): protective effects
persistence in brain and spinal tissue [1]: persisted
brain and spinal cord levels [2]: undetectable
plasma concentration of DPN, Compound 1 vs DPN ([2]; FIG. 2B): no difference
levels of DPN in plasma, brain and spinal cord, compared to dosing with DPN ([3]; 3 and 6 hours): higher
levels of DPN in plasma, brain and spinal cord, compared to dosing with DPN ([3]; 15 minutes): lower
DPN level in plasma ([3]; 12 hours, high dose): detectable
amounts of DPN in plasma, spinal cord tissue and brain tissue [4]: improvement in maintaining effective amounts of DPN

CCC(=O)Oc1ccc(CC(C#N)c2ccc(OC(=O)CC)cc2)cc1 (stereo not drawn) [Compound 2]
persistence in brain and spinal tissue [1]: persisted
concentration in plasma, spinal cord and brain tissue, among DPN, Compound 1 and Compound 2 ([1]; first 6 hours after treatment, FIG. 7A-7C): highest concentration

C[C@]12CC[C@@H]3c4ccc(O)cc4CC[C@H]3[C@@H]1C[C@@H](O)[C@@H]2O [estriol]
fatigue (multiple sclerosis; [5]): reduced fatigue
relapses (multiple sclerosis; [5]): reduced relapses
cortical gray matter atrophy (multiple sclerosis; estriol as compared to placebo treated MS patients): spared

N#CC(Cc1ccc(O)cc1)c1ccc(O)cc1 (stereo not drawn) [DPN, 2,3-bis(4-hydroxyphenyl)propanenitrile, reference compound]
EAE clinical score, dose dependence (adoptive EAE): dose responses
effect on EAE disease progression (EAE clinical score) (active EAE): protective effects
brain and spinal cord levels [2]: undetectable
efficacy in EAE of dosing regimen (EAE; dosing every two days, shown in the past): efficacious
clinical EAE disease severity (EAE; known treatment of EAE): reduces clinical EAE disease severity
tolerability of dosing regimen (EAE; mouse, in vivo): tolerable
